Source: the NIST ThermoML archive (doi:10.1016/j.jct.2011.10.001)
± gives the expanded uncertainty stated by the source.

Columns and labels:
[1] = for molar entropy: 101.33 kPa, Vacuum adiabatic calorimetry; for vapor or sublimation pressure: Ebulliometric method (Recirculating still)
[2] = Molar enthalpy of transition or fusion; details: Crystal; Adiabatic calorimetry

Compound: CCCC(=O)OC [methyl butanoate]
- molar entropy ([1]; 5 K, Crystal): 0.119 ± 0.017 J/K/mol
- molar entropy ([1]; 10 K, Crystal): 0.949 ± 0.027 J/K/mol
- molar entropy ([1]; 15 K, Crystal): 2.987 ± 0.046 J/K/mol
- molar entropy ([1]; 20 K, Crystal): 6.126 ± 0.068 J/K/mol
- molar entropy ([1]; 25 K, Crystal): 10.07 ± 0.085 J/K/mol
- molar entropy ([1]; 30 K, Crystal): 14.55 ± 0.1 J/K/mol
- molar entropy ([1]; 35 K, Crystal): 19.38 ± 0.12 J/K/mol
- molar entropy ([1]; 40 K, Crystal): 24.39 ± 0.14 J/K/mol
- molar entropy ([1]; 45 K, Crystal): 29.43 ± 0.15 J/K/mol
- molar entropy ([1]; 50 K, Crystal): 34.51 ± 0.17 J/K/mol
- molar entropy ([1]; 55 K, Crystal): 39.59 ± 0.18 J/K/mol
- molar entropy ([1]; 60 K, Crystal): 44.66 ± 0.2 J/K/mol
- molar entropy ([1]; 65 K, Crystal): 49.71 ± 0.21 J/K/mol
- molar entropy ([1]; 70 K, Crystal): 54.67 ± 0.23 J/K/mol
- molar entropy ([1]; 75 K, Crystal): 59.5 ± 0.24 J/K/mol
- molar entropy ([1]; 80 K, Crystal): 64.19 ± 0.25 J/K/mol
- molar entropy ([1]; 85 K, Crystal): 68.76 ± 0.27 J/K/mol
- molar entropy ([1]; 90 K, Crystal): 73.24 ± 0.41 J/K/mol
- molar entropy ([1]; 95 K, Crystal): 77.63 ± 0.42 J/K/mol
- molar entropy ([1]; 100 K, Crystal): 81.94 ± 0.42 J/K/mol
- molar entropy ([1]; 110 K, Crystal): 90.3 ± 0.44 J/K/mol
- molar entropy ([1]; 120 K, Crystal): 98.36 ± 0.45 J/K/mol
- molar entropy ([1]; 130 K, Crystal): 106.18 ± 0.46 J/K/mol
- molar entropy ([1]; 140 K, Crystal): 113.66 ± 0.47 J/K/mol
- molar entropy ([1]; 150 K, Crystal): 120.98 ± 0.48 J/K/mol
- molar entropy ([1]; 160 K, Crystal): 128.13 ± 0.49 J/K/mol
- molar entropy ([1]; 170 K, Crystal): 135.11 ± 0.5 J/K/mol
- molar entropy ([1]; 180 K, Crystal): 141.93 ± 0.51 J/K/mol
- molar entropy ([1]; 190 K, Crystal): 148.58 ± 0.52 J/K/mol
- molar entropy ([1]; 190.09 K, Crystal): 148.66 ± 0.52 J/K/mol
- molar entropy ([1]; 190.09 K, Liquid): 208.44 ± 0.61 J/K/mol
- molar entropy ([1]; 200 K, Liquid): 217.84 ± 0.63 J/K/mol
- molar entropy ([1]; 210 K, Liquid): 226.9 ± 0.64 J/K/mol
- molar entropy ([1]; 220 K, Liquid): 235.55 ± 0.65 J/K/mol
- molar entropy ([1]; 230 K, Liquid): 243.86 ± 0.67 J/K/mol
- molar entropy ([1]; 240 K, Liquid): 251.84 ± 0.68 J/K/mol
- molar entropy ([1]; 250 K, Liquid): 259.58 ± 0.69 J/K/mol
- molar entropy ([1]; 260 K, Liquid): 267.06 ± 0.7 J/K/mol
- molar entropy ([1]; 270 K, Liquid): 274.38 ± 0.71 J/K/mol
- molar entropy ([1]; 280 K, Liquid): 281.36 ± 0.72 J/K/mol
- molar entropy ([1]; 290 K, Liquid): 288.26 ± 0.73 J/K/mol
- molar entropy ([1]; 298.15 K, Liquid): 293.75 ± 0.74 J/K/mol
- molar entropy ([1]; 300 K, Liquid): 295 ± 0.74 J/K/mol
- molar entropy ([1]; 310 K, Liquid): 301.48 ± 0.75 J/K/mol
- vapor or sublimation pressure ([1]; 316.24 K, Liquid): 10.8 ± 0.054 kPa
- molar entropy ([1]; 320 K, Liquid): 307.88 ± 0.76 J/K/mol
- vapor or sublimation pressure ([1]; 321.02 K, Liquid): 13.43 ± 0.054 kPa
- vapor or sublimation pressure ([1]; 326.17 K, Liquid): 16.83 ± 0.055 kPa
- molar entropy ([1]; 330 K, Liquid): 314.12 ± 0.77 J/K/mol
- vapor or sublimation pressure ([1]; 331.33 K, Liquid): 20.88 ± 0.056 kPa
- vapor or sublimation pressure ([1]; 335.84 K, Liquid): 25.07 ± 0.057 kPa
- molar entropy ([1]; 340 K, Liquid): 320.27 ± 0.78 J/K/mol
- vapor or sublimation pressure ([1]; 341.17 K, Liquid): 30.91 ± 0.059 kPa
- vapor or sublimation pressure ([1]; 346.14 K, Liquid): 37.26 ± 0.061 kPa
- molar entropy ([1]; 350 K, Liquid): 326.34 ± 0.79 J/K/mol
- vapor or sublimation pressure ([1]; 351.81 K, Liquid): 45.83 ± 0.064 kPa
- vapor or sublimation pressure ([1]; 357.57 K, Liquid): 56.12 ± 0.069 kPa
- molar entropy ([1]; 360 K, Liquid): 332.33 ± 0.8 J/K/mol
- vapor or sublimation pressure ([1]; 363.05 K, Liquid): 67.49 ± 0.074 kPa
- vapor or sublimation pressure ([1]; 368.86 K, Liquid): 81.57 ± 0.08 kPa
- molar entropy ([1]; 370 K, Liquid): 338.15 ± 0.81 J/K/mol
- vapor or sublimation pressure ([1]; 373.81 K, Liquid): 95.31 ± 0.086 kPa
- vapor or sublimation pressure ([1]; 374.54 K, Liquid): 97.44 ± 0.087 kPa
- vapor or sublimation pressure ([1]; 375.25 K, Liquid): 99.6 ± 0.089 kPa
- Triple point temperature ([1]; Crystal, fractional melting): 190.1 ± 0.1 K
- Molar enthalpy of transition or fusion [2]: 2.72 ± 0.0287 kcal/mol
